How the values were obtained:
Plasma [1] = assay: Fraction unbound in Wistar Hann rat plasma at 5 mg/kg, sc after 1 hr; type: ADME, organism-based; conditions: in vivo
Plasma [2] = assay: Fraction unbound in Wistar Hann rat plasma at 5 mg/kg, sc after 2 hrs; type: ADME, organism-based; conditions: in vivo
Plasma [3] = assay: Fraction unbound in Wistar Hann rat plasma at 5 mg/kg, sc after 4 hrs; type: ADME, organism-based; conditions: in vivo
Plasma [4] = assay: Fraction unbound in Wistar Hann rat plasma at 5 mg/kg, sc after 6 hrs; type: ADME, organism-based; conditions: in vivo
[5] = Ratio of drug level in brain to plasma in Wistar Hann rat at 5 mg/kg, sc after 1 hr; type: ADME, organism-based
[6] = Ratio of drug level in brain to plasma in Wistar Hann rat at 5 mg/kg, sc after 2 hrs; type: ADME, organism-based
[7] = Ratio of drug level in brain to plasma in Wistar Hann rat at 5 mg/kg, sc after 4 hrs; type: ADME, organism-based
[8] = Ratio of drug level in brain to plasma in Wistar Hann rat at 5 mg/kg, sc after 6 hrs; type: ADME, organism-based
[9] = Ratio of unbound AUC in brain to plasma in Wistar Hann rat at 5 mg/kg, sc after 1 hr; type: ADME, organism-based; conditions: read-out: Ratio AUC
[10] = Ratio of unbound AUC in brain to plasma in Wistar Hann rat at 5 mg/kg, sc after 2 hrs; type: ADME, organism-based; conditions: brain and plasma, read-out: Ratio AUC
[11] = Ratio of unbound AUC in brain to plasma in Wistar Hann rat at 5 mg/kg, sc after 4 hrs; type: ADME, organism-based; conditions: brain and plasma, read-out: Ratio AUC
[12] = Ratio of unbound AUC in brain to plasma in Wistar Hann rat at 5 mg/kg, sc after 6 hrs; type: ADME, organism-based; conditions: brain and plasma, read-out: Ratio AUC
[13] = Drug concentration in Wistar Hann rat CSF at 5 mg/kg, sc after 1 hr; type: ADME, organism-based, Cerebrospinal fluid; conditions: read-out: Drug uptake
[14] = Drug concentration in Wistar Hann rat CSF at 5 mg/kg, sc after 2 hrs; type: ADME, organism-based, Cerebrospinal fluid; conditions: read-out: Drug uptake
[15] = Drug concentration in Wistar Hann rat CSF at 5 mg/kg, sc after 4 hrs; type: ADME, organism-based, Cerebrospinal fluid; conditions: read-out: Drug uptake
[16] = Drug concentration in Wistar Hann rat CSF at 5 mg/kg, sc after 6 hrs; type: ADME, organism-based, Cerebrospinal fluid; conditions: read-out: Drug uptake
[17] = Ratio of drug level in CSF to plasma in Wistar Hann rat at 5 mg/kg, sc after 1 hr; type: ADME, organism-based; conditions: CSF and plasma
[18] = Ratio of drug level in CSF to plasma in Wistar Hann rat at 5 mg/kg, sc after 2 hrs; type: ADME, organism-based; conditions: CSF and plasma
[19] = Ratio of drug level in CSF to plasma in Wistar Hann rat at 5 mg/kg, sc after 4 hrs; type: ADME, organism-based; conditions: CSF and plasma
[20] = Ratio of drug level in CSF to plasma in Wistar Hann rat at 5 mg/kg, sc after 6 hrs; type: ADME, organism-based; conditions: CSF and plasma
[21] = Ratio of unbound AUC in CSF to plasma in Wistar Hann rat at 5 mg/kg, sc after 1 hr; type: ADME, organism-based; conditions: CSF and plasma, read-out: Ratio AUC
[22] = Ratio of unbound AUC in CSF to plasma in Wistar Hann rat at 5 mg/kg, sc after 2 hrs; type: ADME, organism-based; conditions: CSF and plasma, read-out: Ratio AUC
[23] = Ratio of unbound AUC in CSF to plasma in Wistar Hann rat at 5 mg/kg, sc after 4 hrs; type: ADME, organism-based; conditions: CSF and plasma, read-out: Ratio AUC
[24] = Ratio of unbound AUC in CSF to plasma in Wistar Hann rat at 5 mg/kg, sc after 6 hrs; type: ADME, organism-based; conditions: CSF and plasma, read-out: Ratio AUC
[25] = Cmax in Wistar Hann rat plasma at 5 mg/kg, sc; type: ADME, organism-based; set-up: dose 5 mg/kg, route subcutaneous
[26] = Cmax in Wistar Hann rat brain at 5 mg/kg, sc; type: ADME, organism-based; set-up: dose 5 mg/kg, route subcutaneous
[27] = Cmax in Wistar Hann rat CSF at 5 mg/kg, sc; type: ADME, organism-based, Cerebrospinal fluid; set-up: dose 5 mg/kg, route subcutaneous
[28] = Tmax in Wistar Hann rat plasma at 5 mg/kg, sc; type: ADME, organism-based
[29] = Tmax in Wistar Hann rat brain at 5 mg/kg, sc; type: ADME, organism-based
[30] = Tmax in Wistar Hann rat CSF at 5 mg/kg, sc; type: ADME, organism-based, Cerebrospinal fluid
[31] = AUC (0 to tlast) in Wistar Hann rat plasma at 5 mg/kg, sc; type: ADME, organism-based
[32] = AUC (0 to tlast) in Wistar Hann rat brain at 5 mg/kg, sc; type: ADME, organism-based
[33] = AUC (0 to tlast) in Wistar Hann rat CSF at 5 mg/kg, sc; type: ADME, organism-based, Cerebrospinal fluid
[34] = AUC (0 to infinity) in Wistar Hann rat plasma at 5 mg/kg, sc; type: ADME, organism-based; set-up: dose 5 mg/kg, time infinity, route subcutaneous
[35] = AUC (0 to infinity) in Wistar Hann rat brain at 5 mg/kg, sc; type: ADME, organism-based; set-up: dose 5 mg/kg, route subcutaneous, time infinity
[36] = AUC (0 to infinity) in Wistar Hann rat CSF at 5 mg/kg, sc; type: ADME, organism-based, Cerebrospinal fluid; set-up: dose 5 mg/kg, time infinity, route subcutaneous

## Cn1ccc(-c2ccc(Cn3cc(C(=O)N[C@H]4CCOC[C@@H]4O)c4ncccc43)cc2)n1
Plasma [1]
  Cp(f): 463 nM
Plasma [2]
  Cp(f): 502 nM
Plasma [3]
  Cp(f): 293 nM
Plasma [4]
  Cp(f): 197.5 nM
[5]
  Kp at 1 h: 0.21
[6]
  Kp at 2 h: 0.18
[7]
  Kp at 4 h: 0.22
[8]
  Kp at 6 h: 0.19
[9]
  Kp uu at 1 h: 0.15
[10]
  Kp uu at 2 h: 0.13
[11]
  Kp uu at 4 h: 0.16
[12]
  Kp uu at 6 h: 0.14
[13]
  concentration at 1 h: 133 nM
[14]
  concentration at 2 h: 144 nM
[15]
  concentration at 4 h: 76.2 nM
[16]
  concentration at 6 h: 54.3 nM
[17]
  Kp at 1 h: 0.03
[18]
  Kp at 2 h: 0.03
[19]
  Kp at 4 h: 0.02
[20]
  Kp at 6 h: 0.02
[21]
  Kp uu at 1 h: 0.29
[22]
  Kp uu at 2 h: 0.29
[23]
  Kp uu at 4 h: 0.27
[24]
  Kp uu at 6 h: 0.27
[25]
  Cmax: 2360 ng/mL
[26]
  Cmax: 453 ng/mL
[27]
  Cmax: 62.2 ng/mL
[28]
  Tmax: 2 h
[29]
  Tmax: 1 h
[30]
  Tmax: 2 h
[31]
  AUC(0-t): 9400 ng·h/mL
[32]
  AUC(0-t): 1830 ng·h/mL
[33]
  AUC(0-t): 240 ng·h/mL
[34]
  AUC(0-inf): 13400 ng·h/mL
[35]
  AUC(0-inf): 2680 ng·h/mL
[36]
  AUC(0-inf): 380 ng·h/mL

Source: ChEMBL document CHEMBL3745675, “Design and optimization of selective azaindole amide M1 positive allosteric modulators” (Bioorg Med Chem Lett, 2016)
